Measured values as given in patent publication US20180110824A1, “Macrocyclic Modulators of the Ghrelin Receptor” (Ocera Therapeutics, Inc., priority 2016, published 2018).
Read-outs that look alike come from different tables or passages of the source.

Key:
[1] = target: motilin receptor (Homo sapiens, UniProt O43193); assay: Selectivity for the ghrelin receptor versus the motilin receptor; format: binding
Source text: The level of agonist activity and selectivity for representative compounds of the invention are shown below in Table 4.

[2] = target: T1, human ghrelin receptor (hGHS-R1a) (Homo sapiens, UniProt Q92847); assay: Aequorin functional assay (ghrelin receptor), CHO-K1 cells co-expressing Gα16 and aequorin; format: cell-based; settings: Table 4; functional (agonist) activity; TFA salts unless otherwise noted; read-out: EC50
T1 construct: host or cells: CHO-K1 co-expressing Gα16 and mitochondrially targeted aequorin
T1 sequence (Q92847 whole entry): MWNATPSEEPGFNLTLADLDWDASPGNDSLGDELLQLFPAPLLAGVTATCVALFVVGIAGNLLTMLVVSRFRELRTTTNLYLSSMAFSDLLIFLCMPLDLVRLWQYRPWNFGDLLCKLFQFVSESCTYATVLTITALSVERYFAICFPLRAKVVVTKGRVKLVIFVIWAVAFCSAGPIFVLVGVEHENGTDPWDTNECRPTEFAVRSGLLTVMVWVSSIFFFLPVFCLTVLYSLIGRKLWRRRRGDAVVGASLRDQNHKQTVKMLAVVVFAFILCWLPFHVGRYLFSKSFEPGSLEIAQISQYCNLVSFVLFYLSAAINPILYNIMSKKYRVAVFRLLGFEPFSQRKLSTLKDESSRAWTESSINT
Protocol: This cell line is typically constructed by transfection of the human ghrelin receptor into CHO-K1 cells co-expressing Gα16 and the mitochondrially targeted Aequorin (Ref #ES-WT-A5). • 1. […] Assay buffer: DMEM (Dulbecco's Modified Eagles Medium) containing 0.1% BSA (bovine serum albumin; pH 7.0). • 3. Coelenterazine (Molecular Probes, Leiden, The Netherlands). • Final test concentrations (N=8) for compounds of the invention: 10, 1, 0.3, 0.1, 0.03, 0.01, 0.003, 0.001 μM.
Stock solutions of compounds (10 mM in 100% DMSO) were provided frozen on dry ice and stored at −20° C. prior to use. […] Assay plates were then prepared by appropriate dilution in DMEM medium containing 0.1% BSA. Under these conditions, the maximal final DMSO concentration in the assay was <0.6%.
AequoScreen™ cells were collected from culture plates with Ca^2+ and Mg^2+-free phosphate buffered saline (PBS) supplemented with 5 mM EDTA, pelleted for 2 min at 1000×g re-suspended in DMEM—Ham's F12 containing 0.1% BSA at a density of 5×10^6 cells/mL, and incubated O/N at rt in the presence of 5 μM coelenterazine. After loading, cells were diluted with assay buffer to a concentration of 5×10^5 cells/mL.
For agonist testing, 50 μL of the cell suspension was mixed with 50 μL of the appropriate concentration of test compound or ghrelin (reference agonist) in 96-well plates (duplicate samples). Ghrelin (reference agonist) was tested at several concentrations concurrently with the test compounds in order to validate the experiment. The emission of light resulting from receptor activation in response to ghrelin or test compounds was recorded using the Hamamatsu FDSS 6000 reader (Hamamatsu Photonics K.K., Japan).
Results were expressed as Relative Light Units (RLU). […] EC50, Hill slope and % Emax values are reported.
• 1. Assay performed on CHO-K1 cells expressing the transfected, cloned human ghrelin receptor (hGHS-R1a) and Gα16. • 2. Suspended cells incubated O/N with coelenterazine. • 3. Stimulation of hGHS-R1a activates Gα16, causing […] Ca2+ release which ultimately leads to the oxidation of coelenterazine and the emission of a quantitative luminescent signal. • 4. Ghrelin was used as the positive control. • 5.

[3] = target: T2, human growth hormone secretagogue receptor (hGHS-R1a) (Homo sapiens, UniProt Q92847); assay: Competitive radioligand binding assay (ghrelin receptor), [125I]-ghrelin displacement on GHS-R/HEK 293 membranes
T2 construct: purchased PerkinElmer BioSignal #RBHGHSM; host or cells: HEK-293, stably transfected
T2 sequence (Q92847 whole entry): as above

[4] = Table 4, TFA salts unless otherwise noted, read-out: Ki
[5] = Binding activity at the human ghrelin receptor, [125I]-ghrelin displacement, read-out: Ki
[6] = Table 3B, binding activity at the human ghrelin receptor, read-out: Ki

Sequence of motilin receptor (O43193 whole entry, species assumed): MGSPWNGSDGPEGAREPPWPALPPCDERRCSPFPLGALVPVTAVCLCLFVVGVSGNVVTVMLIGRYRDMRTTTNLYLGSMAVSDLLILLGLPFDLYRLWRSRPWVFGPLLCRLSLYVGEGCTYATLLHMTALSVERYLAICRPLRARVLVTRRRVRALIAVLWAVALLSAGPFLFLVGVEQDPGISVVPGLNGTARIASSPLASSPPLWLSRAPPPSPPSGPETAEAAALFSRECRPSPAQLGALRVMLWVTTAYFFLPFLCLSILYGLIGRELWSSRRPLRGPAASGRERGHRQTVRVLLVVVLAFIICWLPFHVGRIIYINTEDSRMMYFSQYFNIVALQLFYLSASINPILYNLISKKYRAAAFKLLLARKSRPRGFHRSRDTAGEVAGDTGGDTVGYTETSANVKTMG

SMILES | Selectivity [1] | EC50 [2] [nM] | Ki ([3]; Table 3C, read-out: Ki) [nM] | Ki [3, 4] [nM] | Ki [3, 5] [nM] | Ki [3, 6] [nM] | Ki ([3]; [125I]-ghrelin displacement, GHS-R/HEK 293 membranes, class symbols, read-out: Binding Activity at the Human Ghrelin Receptor (Ki)) [nM]
CCC(C)C1NCCOc2ccccc2C=CCNC(=O)C(Cc2ccccc2)NC(=O)C(C)N(C)C1=O (stereo not shown) [compound 40] | >3300/1 |  |  |  |  |  | 
C[C@H]1NC(=O)C2(CCCC2)NCCOc2ccccc2/C=C/CNC(=O)[C@H](Cc2cccc(Cl)c2)NC1=O [compound 351] | 450/1 | 1 to 100 | 10 to 100 | 10 to 100 |  |  | 
C[C@@H]1C(=O)N[C@H](Cc2ccccc2)C(=O)NCCCc2ccccc2OCCN[C@@H](C2CC2)C(=O)N1C [compound 17] | 2500/1 | 1 to 100 |  | 0.1 to 10 | 0.1 to 10 |  | 
CC1COc2ccccc2CCCNC(=O)C(Cc2ccc(F)cc2)NC(=O)C(C)N(C)C(=O)C(C2CC2)N1 (stereo not shown) [compound 394] | 1700/1 |  |  |  |  |  | 
CC(C)C[C@@H]1NCCOc2ccccc2/C=C/CNC(=O)[C@H](Cc2ccccc2)NC(=O)C2(CCCC2)NC1=O [Compound 8] | 200/1 | 1 to 100 |  | 10 to 100 | 10 to 100 |  | 
CC[C@H](C)[C@@H]1NCCCCCCCCNC(=O)[C@H](Cc2cccc(Cl)c2)NC(=O)C2(CCCC2)NC1=O [compound 363] | 35/1 |  |  | 100 to 1000 |  | 100 to 1000 | 
CCC(C)[C@@H]1NCCOc2ccccc2/C=C/CNC(=O)[C@H](Cc2cccc(Cl)c2)NC(=O)C2(CCCC2)NC1=O (stereo partly shown) [345a] | >159/1 | 1 to 100 |  | 10 to 100 |  | 100 to 1000 | 
CC(C)C1NCCOc2ccccc2C=CCNC(=O)C(Cc2ccccc2)NC(=O)C(C)N(C)C1=O (stereo not shown) [compound 19] | >1700/1 |  |  |  |  |  | 
CC[C@@H](C)[C@@H]1NCCOc2ccccc2CCCNC(=O)[C@@H](Cc2ccccc2)NC(=O)[C@@H](C)N(C)C1=O [compound 16] | >2000/1 |  |  |  |  |  | 
CCC(C)[C@@H]1NCCOc2ccccc2CCCNC(=O)[C@@H](Cc2ccc(OC)cc2)NC(=O)[C@@H](C)N(C)C1=O (stereo partly shown) [compound 27] | >7100/1 | 1 to 100 |  | 0.1 to 10 | 0.1 to 10 |  | 
CCC(C)C1NCCOc2ccccc2CCCNC(=O)C(Cc2ccccc2)NC(=O)C(C)N(CC)C1=O (stereo not shown) [compound 43] | 3700/1 |  |  |  |  |  | 
CCCC1NCCOc2ccccc2CCCNC(=O)C(Cc2ccccc2)NC(=O)C(C)N(C)C1=O (stereo not shown) [Compound 4] | 3012/1 |  |  |  |  |  | 
C[C@@H]1C(=O)N[C@H](Cc2ccc(Cl)cc2)C(=O)NCCCc2ccccc2OCCN[C@@H](C2CC2)C(=O)N1C [compound 299] |  | 1 to 100 |  | 0.1 to 10 |  | 0.1 to 10 | 
C[C@@H]1C(=O)N[C@H](Cc2ccc(C(F)(F)F)cc2)C(=O)NCCCc2ccccc2OCCN[C@@H](C2CC2)C(=O)N1C [compound 322] |  | 1 to 100 |  | 0.1 to 10 |  | 0.1 to 10 | 
C[C@@H]1C(=O)N[C@H](Cc2ccc(Cl)cc2Cl)C(=O)NCCCc2ccccc2OCCN[C@@H](C2CC2)C(=O)N1C [compound 314] | >5500/1 | 1 to 100 |  | 0.1 to 10 |  | 0.1 to 10 | 
C[C@@H]1C(=O)N[C@H](Cc2ccc(F)cc2)C(=O)NCCCc2cc(NS(C)(=O)=O)ccc2OCCN[C@@H](C2CC2)C(=O)N1C [compound 374] | 250/1 | 1 to 100 |  | 10 to 100 |  | 10 to 100 | 
CCC(C)C1NCCOc2ccccc2CCCNC(=O)C(CC(C)C)NC(=O)C(C)N(C)C1=O (stereo not shown) [compound 176] | 105/1 |  |  |  |  |  | 
CCC(C)C1NCCOc2ccccc2CCCNC(=O)C(Cc2cccc(Cl)c2)NC(=O)C(C)N(C)C1=O (stereo not shown) [compound 24] | 3039/1 |  |  |  |  |  | 
CC(C)C[C@@H]1NCCOc2ccccc2/C=C/CNC(=O)[C@H](CC(C)C)NC(=O)C2(CCCC2)NC1=O [compound 47] |  | 1 to 100 |  | 100 to 1000 | 100 to 1000 |  | 
CCC(C)C1NCCOc2ccccc2C2CC2CNC(=O)C(Cc2cccc(Cl)c2)NC(=O)C2(CCCC2)NC1=O (stereo not shown) [compound 388] | 400/1 |  |  |  |  |  | 
C[C@@H]1C(=O)N[C@H](Cc2c(F)c(F)c(F)c(F)c2F)C(=O)NCCCc2ccccc2OCCN[C@@H](C2CC2)C(=O)N1C [compound 318] |  | 1 to 100 |  | 0.1 to 10 |  | 0.1 to 10 | 

SMILES | Selectivity [1] | EC50 [2] [nM] | Ki ([3]; Table 3C, read-out: Ki) [nM] | Ki [3, 4] [nM] | Ki [3, 5] [nM] | Ki [3, 6] [nM] | Ki ([3]; [125I]-ghrelin displacement, GHS-R/HEK 293 membranes, class symbols, read-out: Binding Activity at the Human Ghrelin Receptor (Ki)) [nM]
CC(C)C[C@@H]1NCCOc2ccccc2/C=C/CNC(=O)[C@H](Cc2cccc(Cl)c2)NC(=O)C2(CCCC2)NC1=O [compound 21] | 1078/1 | 1 to 100 |  | 0.1 to 10 | 0.1 to 10 |  | 
CCC(C)[C@@H]1NC[C@@H](C)Oc2ccccc2CCCNC(=O)[C@H](Cc2cccc(Cl)c2)NC(=O)C2(CCCC2)NC1=O (stereo partly shown) [368a] |  | > 1000 |  | 0.1 to 10 |  | 10 to 100 | 
CC[C@H](C)[C@@H]1NCCOc2ccc(F)cc2CCCNC(=O)[C@H](Cc2cccc(Cl)c2)NC(=O)C2(CCCC2)NC1=O [compound 382] | 74/1 | 100 to 1000 |  | 10 to 100 |  | 10 to 100 | 
C[C@@H]1C(=O)N[C@H](Cc2ccc(F)cc2)C(=O)NCCCc2ncccc2OCCN[C@@H](C2CC2)C(=O)N1C [306a] | 714/1 | 1 to 100 |  | 10 to 100 |  | 10 to 100 | 
CCC(C)[C@@H]1NC[C@@H](C)Oc2ccccc2CCCNC(=O)[C@@H](Cc2ccccc2)NC(=O)[C@@H](C)N(C)C1=O (stereo partly shown) [compound 35] |  | 1 to 100 |  | 10 to 100 | 10 to 100 |  | 
CC(C)C[C@@H]1NCCOc2ccccc2/C=C/CNC(=O)[C@H](Cc2ccccc2Cl)NC(=O)C2(CCCC2)NC1=O [compound 20] | 1044/1 |  |  |  |  |  | 
CCC[C@@H]1NCCOc2ccccc2CCCNC(=O)[C@@H](Cc2ccc(O)cc2)NC(=O)CN(C)C1=O [compound 7] | >100/1 | 1 to 100 |  | 100 to 1000 | 100 to 1000 |  | 
C[C@@H]1C(=O)N[C@H](Cc2ccc(F)cc2)C(=O)NCC#Cc2ccccc2OCCN[C@@H](C2CC2)C(=O)N1C [compound 354] |  | 1 to 100 |  | 10 to 100 |  | 10 to 100 | 
CC1(C)NC(=O)C2(CCCC2)NCCOc2ccccc2/C=C/CNC(=O)[C@H](Cc2cccc(Cl)c2)NC1=O [compound 334] | 346/1 |  |  |  |  |  | 
CC(C)[C@@H]1NCCOc2ccccc2/C=C/CNC(=O)[C@H](Cc2ccccc2)NC(=O)C2(CCOCC2)NC1=O [compound 140] |  | 100 to 1000 |  | 100 to 1000 | 100 to 1000 |  | 
CCC(C)C1NCCOc2ccccc2CCCNC(=O)C(Cc2ccc3ccccc3c2)NC(=O)C(C)N(C)C1=O (stereo not shown) [compound 31] | 4900/1 |  |  |  |  |  | 
CCC[C@@H]1NCCOc2ccccc2CCCNC(=O)[C@@H](Cc2c[nH]c3ccccc23)NC(=O)CN(C)C1=O [Compound 6] | 71/1 | 1 to 100 |  | 100 to 1000 | 100 to 1000 |  | 
CCC(C)C1NCCOc2ccccc2CCCNC(=O)C(Cc2cccs2)NC(=O)C(C)N(C)C1=O (stereo not shown) [compound 34] | >1000/1 |  |  |  |  |  | 
COc1ccc(C[C@@H]2NC(=O)C3(CCCC3)NC(=O)[C@H](CC(C)C)NCCOc3ccccc3/C=C/CNC2=O)cc1 [compound 156] |  | 1 to 100 |  | 10 to 100 |  |  | 10 to 100
CCC(C)C1NCCOc2ccccc2CCCNC(=O)C(Cc2ccccc2)NC(=O)C(C)NC1=O (stereo not shown) [compound 2] |  | 100 to 1000 |  | 100 to 1000 | 100 to 1000 |  | 
CC1CNC(C2CC2)C(=O)N(C)C(C)C(=O)NC(Cc2ccc(F)cc2)C(=O)NCCCc2ccccc2O1 (stereo not shown) [compound 367] |  | 1 to 100 |  | 10 to 100 |  | 10 to 100 | 
C[C@@H]1C(=O)N[C@H](Cc2ccc(O)c(C(C)(C)C)c2)C(=O)NCCCc2ccccc2OCCN[C@@H](C2CC2)C(=O)N1C [compound 311] | 21/1 |  |  | 10 to 100 |  | 10 to 100 | 
CCCC1NCCOc2ccccc2C=CCNC(=O)C(Cc2ccccc2)NC(=O)C(C)N(C)C1=O (stereo not shown) [compound 39] | 3400/1 |  |  |  |  |  | 
CCC(C)C1NCCOc2ccccc2CCCNC(=O)C(Cc2ccccc2)NC(=O)C(C)N(C)C1=O (stereo not shown) [compound 15] | >1700/1 |  |  |  |  |  | 
CCC(C)C1NCCOc2ccccc2CCCNC(=O)C(Cc2ccccc2)NC(=O)C(C)N(C)C1=O (stereo not shown) [compound 42] | 4300/1 |  |  |  |  |  | 
